How the values were obtained:
[1] = test system: Methicillin Resistant S. aureus (MRSA, ATCC# 43300); assay: Plug-based microfluidic antibiotic susceptibility screen (stochastic confinement, alamarBlue viability indicator); type: cell-based, Staphylococcus aureus; settings: breakpoint concentration, 4 nL plugs, 4×10^5 CFU/mL, 7 h at 37° C.
S. aureus strain (MRSA) = assay: Macro-scale experiments (negative control check); type: cell-based, Staphylococcus aureus; settings: data not shown
[2] = test system: MSSA (Staphylococcus aureus ATCC# 25923); assay: Antibiotic testing on Mueller Hinton agar plates; settings: 30° C., even after 40 h
Description: Plates were made from Mueller Hinton Agar (Fluka, Switzerland). After autoclaving, the agar was cooled and antibiotics were added and 20 mL plates were poured. For CFX and OXA testing, 50 μL of MRSA and MSSA bacterial culture at 4×10^3 CFU/mL was spread onto separate TSA plates. The plates were incubated at 30° C. After 16.5 h and 40 h the plates were examined for colonies. […] For AMP, ERT, LVF, and VCM, 5 μL of culture at 2×10^4 CFU/mL were spread onto plates, and the plates were incubated at 37° C. for 12 h. After 12 h, growth of colonies on the plates was considered resistance to the antibiotic and no colonies on the plates were considered sensitivity to the antibiotic.

MSSA = assay: Plug-based drug screening in human blood plasma/LB; settings: 1:1 human blood plasma/LB; breakpoint concentration; 7.5 h at 37° C.
[3] = test system: Methicillin Resistant S. aureus (MRSA); settings: CFX 24 mg/L; stated as known; cited from earlier work
[4] = test system: Methicillin Sensitive S. aureus (MSSA); settings: CFX 24 mg/L; stated as known; cited from earlier work
[5] = test system: Methicillin Resistant S. aureus (MRSA); assay: MIC determination in plugs; settings: Staphylococcus aureus, 6.75 h, read-out: MIC of CFX for MRSA
[6] = test system: Methicillin Sensitive S. aureus (MSSA); assay: MIC determination in plugs; settings: Staphylococcus aureus, 6.5 h, read-out: MIC of CFX for MSSA

CN[C@H](CC(C)C)C(=O)N[C@H]1C(=O)N[C@@H](CC(N)=O)C(=O)N[C@H]2C(=O)N[C@H]3C(=O)N[C@H](C(=O)N[C@H](C(=O)O)c4cc(O)cc(O)c4-c4cc3ccc4O)[C@H](O)c3ccc(c(Cl)c3)Oc3cc2cc(c3O[C@@H]2O[C@H](CO)[C@@H](O)[C@H](O)[C@H]2O[C@H]2C[C@](C)(N)[C@H](O)[C@H](C)O2)Oc2ccc(cc2Cl)[C@H]1O [VCM, vancomycin]
Susceptibility of MRSA to antibiotic (increase in fluorescence intensity of plugs versus 3 times the VCM baseline) [1]: sensitive
Susceptibility of MRSA to antibiotic (increase in fluorescence intensity of plugs versus 3 times the VCM baseline) ([1]; listed as Vancomycin): not resistant
Inhibition of the S. aureus strain in macro-scale experiments (S. aureus strain (MRSA)): inhibited

Cc1onc(-c2ccccc2)c1C(=O)N[C@@H]1C(=O)N2[C@@H]1SC(C)(C)[C@@H]2C(=O)O [OXA, oxacillin]
Appearance of MSSA colonies on antibiotic plates [2]: did not appear

CC1(C)S[C@@H]2[C@H](NC(=O)[C@H](N)c3ccccc3)C(=O)N2[C@H]1C(=O)O [AMP, ampicillin]
Increase in fluorescence intensity of plugs containing MSSA and antibiotic (MSSA): no increase in fluorescence intensity

CO[C@@]1(NC(=O)Cc2cccs2)C(=O)N2C(C(=O)O)=C(COC(N)=O)CS[C@@H]21 [CFX, cefoxitin]
Inhibition of MRSA at the positive control concentration [3]: inhibited
Inhibition of MSSA at the positive control concentration [4]: inhibited
MIC [5]: < 8000 µg/mL
MIC [6]: < 4000 µg/mL
Appearance of MSSA colonies on antibiotic plates [2]: did not appear
